Laboratory results reported in PMC12028158, “Synthesis and In Vitro Evaluation of the Anticancer Effect of Novel Phosphonium Vindoline Derivatives” (International Journal of Molecular Sciences, 2025).
Read-outs that look alike come from different tables or passages of the source.

Key:
Format in all cases: cell-based
[1] = tested on: 60 human tumor cell lines (NCI60); assay: NCI60 one-dose screen, overall mean; conditions: one-dose
[2] = tested on: HOP-62; assay: NCI60 five-dose screen; conditions: Homo sapiens; HOP-62, Non-small Cell Lung Cancer, five-dose; read-out: GI50
[3] = tested on: HOP-92; assay: NCI60 five-dose screen; conditions: Homo sapiens; HOP-92, Non-small Cell Lung Cancer, five-dose; read-out: GI50
[4] = tested on: SNB-19; assay: NCI60 one-dose screen; conditions: Homo sapiens; SNB-19, 10 μM, one-dose; read-out: Growth percent
[5] = tested on: DU-145; assay: NCI60 one-dose screen; conditions: Homo sapiens; DU-145, 10 μM, one-dose; read-out: Growth percent
[6] = tested on: SK-MEL-5; assay: NCI60 one-dose screen; conditions: Homo sapiens; SK-MEL-5, 10 μM, one-dose; read-out: Growth percent
[7] = tested on: CNS Cancer panel; assay: NCI60 five-dose screen, panel mean; conditions: Homo sapiens; mean over CNS Cancer panel; read-out: Mean GI50
[8] = tested on: SK-MEL-2; assay: NCI60 one-dose screen; conditions: Homo sapiens; SK-MEL-2, 10 μM, one-dose; read-out: Growth percent
[9] = tested on: OVCAR-3; assay: NCI60 five-dose screen; conditions: Homo sapiens; OVCAR-3, Ovarian Cancer, five-dose; read-out: GI50
[10] = tested on: CCRF-CEM; assay: NCI60 five-dose screen; conditions: Homo sapiens, Leukemia, five-dose, read-out: GI50
[11] = tested on: MDA-MB-468; assay: NCI60 five-dose screen; conditions: Homo sapiens, read-out: GI50
[12] = tested on: RPMI-8226; assay: NCI60 five-dose screen; conditions: Homo sapiens; RPMI-8226, Leukemia, five-dose; read-out: GI50
[13] = tested on: KM12; assay: NCI60 five-dose screen; conditions: Homo sapiens, read-out: GI50
[14] = tested on: COLO 205; assay: NCI60 one-dose screen; conditions: Homo sapiens; COLO 205, 10 μM, one-dose; read-out: Growth percent
[15] = tested on: HCC-2998; assay: NCI60 five-dose screen; conditions: Homo sapiens; HCC-2998, Colon Cancer, five-dose; read-out: GI50
[16] = tested on: T-47D; assay: NCI60 five-dose screen; conditions: Homo sapiens, T47D; T-47D, Breast Cancer, five-dose; read-out: GI50
[17] = tested on: SF-539; assay: NCI60 one-dose screen; conditions: Homo sapiens; SF-539, 10 μM, one-dose; read-out: Growth percent
[18] = tested on: A549/ATCC; assay: NCI60 five-dose screen; conditions: Homo sapiens; A549/ATCC, Non-small Cell Lung Cancer, five-dose; read-out: GI50
[19] = tested on: ACHN; assay: NCI60 five-dose screen; conditions: Homo sapiens, Renal Cancer, five-dose, read-out: GI50
[20] = tested on: Breast Cancer panel; assay: NCI60 five-dose screen, panel mean; conditions: Homo sapiens; mean over Breast Cancer panel; read-out: Mean GI50
[21] = tested on: MDA-MB-435; assay: NCI60 one-dose screen; conditions: Homo sapiens; MDA-MB-435, 10 μM, one-dose; read-out: Growth percent
[22] = tested on: SF-295; assay: NCI60 five-dose screen; conditions: Homo sapiens; SF-295, CNS Cancer, five-dose; read-out: GI50
[23] = tested on: NCI-H460; assay: NCI60 one-dose screen; conditions: Homo sapiens; NCI-H460, 10 μM, one-dose; read-out: Growth percent
[24] = tested on: MALME-3M; assay: NCI60 five-dose screen; conditions: Homo sapiens; MALME-3M, Melanoma, five-dose; read-out: GI50
[25] = tested on: EKVX; assay: NCI60 one-dose screen; conditions: Homo sapiens, 10 μM, one-dose, read-out: Growth percent
[26] = tested on: IGROV1; assay: NCI60 one-dose screen; conditions: Homo sapiens, IGROV-1; IGROV1, 10 μM, one-dose; read-out: Growth percent
[27] = tested on: A498; assay: NCI60 five-dose screen; conditions: Homo sapiens; A498, Renal Cancer, five-dose; read-out: GI50
[28] = tested on: TK-10; assay: NCI60 five-dose screen; conditions: Homo sapiens; TK-10, Renal Cancer, five-dose; read-out: GI50
[29] = tested on: U251; assay: NCI60 five-dose screen; conditions: Homo sapiens, read-out: GI50
[30] = tested on: MDA-MB-435; assay: NCI60 five-dose screen; conditions: Homo sapiens; MDA-MB-435, Melanoma, five-dose; read-out: GI50
[31] = tested on: OVCAR-4; assay: NCI60 five-dose screen; conditions: Homo sapiens; OVCAR-4, Ovarian Cancer, five-dose; read-out: GI50
[32] = tested on: COLO 205; assay: NCI60 five-dose screen; conditions: Homo sapiens, read-out: GI50
[33] = tested on: NCI-H23; assay: NCI60 one-dose screen; conditions: Homo sapiens; NCI-H23, 10 μM, one-dose; read-out: Growth percent
[34] = tested on: LOX IMVI; assay: NCI60 one-dose screen; conditions: Homo sapiens, 10 μM, one-dose, read-out: Growth percent
[35] = tested on: CCRF-CEM; assay: NCI60 one-dose screen; conditions: Homo sapiens, 10 μM, one-dose, read-out: Growth percent
[36] = tested on: HT29; assay: NCI60 one-dose screen; conditions: Homo sapiens, HT-29; HT29, 10 μM, one-dose; read-out: Growth percent
[37] = tested on: HL-60(TB); assay: NCI60 five-dose screen; conditions: Homo sapiens, read-out: GI50
[38] = tested on: SN12C; assay: NCI60 five-dose screen; conditions: Homo sapiens, Renal Cancer, five-dose, read-out: GI50
[39] = tested on: SF-268; assay: NCI60 one-dose screen; conditions: Homo sapiens; SF-268, 10 μM, one-dose; read-out: Growth percent
[40] = tested on: SF-268; assay: NCI60 five-dose screen; conditions: Homo sapiens; SF-268, CNS Cancer, five-dose; read-out: GI50
[41] = tested on: ACHN; assay: NCI60 one-dose screen; conditions: Homo sapiens, 10 μM, one-dose, read-out: Growth percent
[42] = tested on: HS 578T; assay: NCI60 one-dose screen; conditions: Homo sapiens; HS 578T, 10 μM, one-dose; read-out: Growth percent
[43] = tested on: NCI-H522; assay: NCI60 five-dose screen; conditions: Homo sapiens; NCI-H522, Non-small Cell Lung Cancer, five-dose; read-out: GI50
[44] = tested on: SW-620; assay: NCI60 five-dose screen; conditions: Homo sapiens; SW-620, Colon Cancer, five-dose; read-out: GI50
[45] = tested on: IGROV1; assay: NCI60 five-dose screen; conditions: Homo sapiens, IGROV-1; IGROV1, Ovarian Cancer, five-dose; read-out: GI50
[46] = tested on: MALME-3M; assay: NCI60 one-dose screen; conditions: Homo sapiens; MALME-3M, 10 μM, one-dose; read-out: Growth percent

CC[C@]12C=CCN3CC[C@@]4(c5ccc(OC)cc5N(C)[C@H]4[C@@](O)(C(=O)OC)[C@@H]1OC(=O)CCC[P+](c1cc(C)c(OC)c(C)c1)(c1cc(C)c(OC)c(C)c1)c1cc(C)c(OC)c(C)c1)[C@@H]32 [9e]
activity at 10 µM ([1]; Homo sapiens, mean over 60 cell lines, 10 μM, read-out: Mean growth percent): -97.1%
Mean growth percent ([1]; mean over 60 cell lines, 10 μM): −97.13%
average reduction / average cell death ([1]; 10 µM, average over cell lines): more than 70%
GI50 [2]: 173 nM
GI50 [3]: 201 nM
activity at 10 µM [4]: -97.1%
activity at 10 µM [5]: -96.8%
activity at 10 µM [6]: -97.5%
GI50 [7]: 180 nM
activity at 10 µM [8]: -98.2%
GI50 [9]: 147 nM
GI50 [10]: 114 nM
GI50 ([11]; MDA-MB-468, MDA-MB-468, Breast Cancer, five-dose): 27 nM
GI50 ([11]; MDA-MB-468, breast cancer MDA-MB-468, text): < 100 nM
GI50 [12]: 20 nM
GI50 ([13]; KM12, KM12, Colon Cancer, five-dose): 47 nM
GI50 ([13]; KM12, colon cancer KM12, text): < 100 nM
activity at 10 µM [14]: -96.6%
GI50 [15]: 195 nM
GI50 [16]: 105 nM
activity at 10 µM [17]: -97.2%
GI50 [18]: 275 nM
GI50 [19]: 319 nM
GI50 [20]: 140 nM
activity at 10 µM [21]: -98.2%
GI50 [22]: 213 nM
activity at 10 µM [23]: -89.5%
GI50 [24]: 288 nM
activity at 10 µM [25]: -98.2%
activity at 10 µM [26]: -99%
GI50 [27]: 314 nM
GI50 [28]: 277 nM
GI50 ([29]; U-251, CNS cancer U251, text): < 100 nM
GI50 ([29]; U-251, U251, CNS Cancer, five-dose): 54 nM
GI50 [30]: 231 nM
GI50 [31]: 271 nM
GI50 ([32]; COLO 205, COLO 205, Colon Cancer, five-dose): 91 nM
GI50 ([32]; COLO 205, colon cancer COLO-205, text): < 100 nM
activity at 10 µM [33]: -98.1%
activity at 10 µM [34]: -96.8%
activity at 10 µM [35]: -95.7%
activity at 10 µM [36]: -97.5%
GI50 ([37]; HL-60, HL-60(TB), Leukemia, five-dose): 39 nM
GI50 ([37]; HL-60, leukemia HL-60(TB)): < 100 nM
GI50 [38]: 159 nM
activity at 10 µM [39]: -97.6%
GI50 [40]: 231 nM
activity at 10 µM [41]: -96.5%
activity at 10 µM [42]: -98.2%
GI50 [43]: 198 nM
GI50 [44]: 245 nM
GI50 [45]: 193 nM
activity at 10 µM [46]: -98.4%
